Results from patent publication US20200237852A1, “Small Molecule Enhancers of Paneth Cell Function and Differentiation” (Massachusetts Institute of Technology, priority 2019, published 2020).

Columns and labels:
Assay type in all cases: cell-based, C57BL/6 mice
[1] = test system: organoids differentiated under ENR+CV, ENR+CD, or ENR; test: Western blotting for LYZ in organoids; details: six days in ENR+CV
Source text: ISC-enriched organoids cultured in 3D Matrigel with ENRCV media were passaged to 24-well plate in 3D Matrigel with ENRCV. At day zero, media were replaced to ENR or ENRCD with or without indicated compounds, and media were replaced every other day. At day six, cells were harvested from Matrigel by mechanical disruption and suspended in basal media. Cell pellets were lysed with Pierce® IP lysis buffer (ThermoFisher, 87787) containing Halt™ Protease Inhibitor Cocktail, EDTA-Free (ThermoFisher, 87785) after 3-minute centrifuge at 300×g at 4° C. Cell extracts were resolved by NuPAGE® SDS-PAGE Gel system (ThermoFisher) and electroblotted onto polyvinylidene difluoride membranes using Criterion™ Blotter (Biorad). The membranes were blocked with 2% Blotting-Grade Blocker (Biorad, 1706404) in TBS-T (50 mM Tris-HCl, 150 mM NaCl, and 0.1% Tween 20, pH 8.0) and then probed with appropriate antibodies. Detection was performed using ECL Select™ Western Blotting Detection Reagent (Amersham, 45-000-999) and ImageQuant LAS4000 (GE Healthcare).

[2] = test system: ISC-enriched organoids in ENR+CD; test: 384-well secondary screen in ENR+CD incl. early vs. full treatment, secreted LYZ (LYZ.NS, LYZ.S); details: 6-day ENR+CD+treatment vs ENR+CD+DMSO; cutoff 0.89, 8 replicates
ENR+CD organoids = test: Flow cytometry analysis, 3D culture, XPO1 inhibitors; details: 6-day ENR+CD organoids
Experimental: ISC-enriched organoids cultured in 3D Matrigel with ENRCV media were passaged to 24-well plate in 3D Matrigel with ENRCV. At day zero, media were replaced to ENRCD with or without indicated compounds, and media were replaced every other day. At day six, cells were washed with basal media, and then harvested from Matrigel by mechanical disruption in TrypLE Express (ThermoFisher, 12605010) to remove Matrigel and dissociate organoids to single cells. After vigorous pipetting and incubation at 37° C. for 20 min, dissociated organoids were strained through a 35 μm cell strainer into a tube (Falcon, 352235). The cell filtrate was centrifuged again at 300×g for 3 min at 4° C. to pellet the cells. Cell pellets were resuspended in FACS buffer (2% FBS in PBS), and then transferred to an ultra low-bind 96-well plate (Corning, 7007). Cells were stained with Zombie-violet viability dye (BioLegend, 423107) at 100× for viability staining and/or antibody staining solution. FITC-conjugated antibody for lysozyme (Dako, […]) and APC-conjugated antibody for CD24 (BioLegend, 138505) were used at 100× dilution. Flow cytometry was performed using an LSR Fortessa (BD; Koch Institute Flow Cytometry Core at MIT). The data were analyzed using FlowJo v10 software.

[3] = test system: mature PC (CD24-mid & LYZ+) and secretory precursor (CD24-hi) populations; test: Flow cytometry profiling of organoids in 2.5-D (CD24, LYZ); details: 6-day ENR+CD+treatment, fraction of viable cells, n=3 bio. donors
Source text: Cells processed for flow cytometry were first gated to exclude potential debris or doublets (via widely accepted forward and side scatter gating), and subsequently gated for viability (via Zombie-violet viability dye exclusion), all viable cells were considered for CD24 & LYZ expression analysis. […] For flow cytometry profiling of the 6 validate small molecules, ISC-enriched ‘small clusters’ in 3D Matrigel culture were passaged to a “2.5D” 96-well plate culture system for six days of ENR, or ENR+CD+drug culture in the same manner as described previously with the exception of plating in 96-well plates prepared with a polymerized 70% Matrigel coating in each well. Plates were centrifuged at 50 g for 1 min at 4° C. to allow for cells to partially embed in Matrigel coating. Drugs were pinned into their respective wells using the Tecan from a drug stamp plate. Media was changed at day three, including pinning of the drug treatments. At day six, cells were washed 3× with basal media, then harvested from Matrigel by mechanical disruption in TrypLE Express to remove Matrigel and dissociate organoids to single cells. After vigorous pipetting and incubation at 37° C. for 20 mins, dissociated organoids were strained through a 96-well filter plate with a 30-40 μm filter (Pall) into an ultra low-bind 96-well plate (Costar) by centrifuging at 300×g for 3 mins at 4° C. The cell filtrate was centrifuged again at 300×g for 3 mins at 4° C. to pellet the cells. Cell pellets were resuspended in FACS buffer (2% FBS in PBS0), then transferred to an ultra low-bind 96-well plate for flow prep. Cells were stained with Zombie-violet viability dye (BioLegend) at 100× for viability staining and/or antibody staining solution. FITC-conjugated antibody for lysozyme and APC-conjugated antibody for CD24 were used at 100× dilution (BioLegend). Flow cytometry was performed using a LSR Fortessa (BD; Koch Institute Flow Cytometry Core at MIT). Flow cytometry data was analyzed using FlowJo X v10.1 software.

O=C(/C=C\n1cnc(-c2cc(C(F)(F)F)cc(C(F)(F)F)c2)n1)NNc1cnccn1 [KPT-330]
LYZ abundance on a per-mass protein normalized basis (western blot) [1]: appreciably increase LYZ abundance
validation in secondary screen (SSMD above cutoff for both LYZ.NS and LYZ.S) [2]: multiple validated doses
Paneth cell representation by flow cytometry (ENR+CD organoids): statistically significant increases in Paneth cell representation
mature PC (CD24-mid & LYZ+) population relative to control [3]: statistically significant increase (adj. p<0.01)
secretory precursor (CD24-hi) population relative to control [3]: trend to a smaller population
